# Test results published in PubChem BioAssay AID1949 (Southern Research Institute, 2009).
# Inconclusive results are not listed. The source made the active and inactive calls. How the calls were made is not given here.
# System: M. tuberculosis H37Rv growth inhibition
# Experiment: Confirmatory growth inhibition assay against Mycobacterium tuberculosis H37Rv, potency (AID 1949);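 further: bacteria grown 7 days with compound before Alamar blue readout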
row,SMILES,IC50
1,COc1ccc(-c2[nH]c(-c3ccc([N+](=O)[O-])cc3)nc2-c2ccccc2)cc1,2.33 µg/mL
2,Cc1cc(C)cc(C(=O)NC(=S)Nc2cc([N+](=O)[O-])ccc2O)c1,0.4 µg/mL
3,O=[N+]([O-])c1ccc(O)c(-c2nc(-c3cccs3)c(-c3cccs3)[nH]2)c1,97 µg/mL
4,COc1ccccc1OC(=O)c1sc2ccccc2c1Cl,1.37 µg/mL
5,CCC(=O)Oc1ccc(-c2nc3ccccc3c(=O)o2)cc1,> 50 µg/mL (inactive)
6,CCNc1nc(NCC)nc(SCCOc2ccc(Br)cc2)n1,4.24 µg/mL
7,Cc1cccc(Nc2nc(NCc3ccco3)c3ccccc3n2)c1,1.86 µg/mL
8,O=C(NC12CC3CC(CC(C3)C1)C2)N1CCN(c2cccc(C(F)(F)F)c2)CC1,0.96 µg/mL
9,COc1ccc(CCNC(=S)N2CCN(c3ccc(Cl)c(Cl)c3)CC2)cc1OC,6.47 µg/mL
10,CC1=CC(C)(C)Nc2ccc(OC(=O)c3cccs3)cc21,3.02 µg/mL
11,O=C(CCN1Cc2ccccc2C1)c1ccc2c(c1)OCCO2,> 50 µg/mL (inactive)
12,CCc1c(C)c2ccc(OCC(=O)OC)c(C)c2oc1=O,0.54 µg/mL
13,CCC(=O)c1ccc(OCC(O)CN2CCN(c3ccc(C)cc3C)CC2)cc1 (stereo not given),> 50 µg/mL (inactive)
14,Cc1cc(Cl)ccc1NC(=O)CCc1ccc(S(=O)(=O)NCC(C)C)cc1,0.53 µg/mL
15,O=C(Oc1ccccc1)c1ccc(COC(=O)c2cc3ccccc3oc2=O)cc1,> 50 µg/mL (inactive)
16,COc1cc(NC(=O)C(Cl)Cl)c(OC)cc1Cl,2.68 µg/mL
17,O=C(Nc1cccc(C(F)(F)F)c1)C1CCN(C(=O)c2ccc(-c3ccccc3)cc2)CC1,5.84 µg/mL
18,N#Cc1c(SCCN2CCCC2)nc2c(c1C(F)(F)F)CC(c1ccccc1)CC2 (stereo not given),47.4 µg/mL
19,Cc1ccc(Cl)cc1N1CCN(CC(O)COc2ccc3ccccc3c2)CC1 (stereo not given),4.13 µg/mL
20,N#Cc1cc(Oc2ccc(OCc3ccccc3)cc2)c([N+](=O)[O-])cc1C#N,< 0.1 µg/mL
21,COc1ccc(Nc2sc(C(=O)C34CC5CC(CC(C5)C3)C4)c(N)c2C#N)cc1,12.1 µg/mL
22,COc1ccc(CCn2cnc3oc(-c4ccccc4)c(-c4ccccc4)c3c2=N)cc1OC,> 50 µg/mL (inactive)
23,O=C(CSc1nnc(-c2ccccc2)o1)N1CCc2ccccc2C1,9.27 µg/mL

row,SMILES,IC50
1,O=C(CC(Nc1ccc(F)cc1)c1ccccc1)c1ccccc1 (stereo not given),9.26 µg/mL
2,CCOC(=O)c1c(NC(=O)CN2CCN(CCO)CC2)sc2c1CCC(C)C2 (stereo not given),7.17 µg/mL
3,S=C(NCCc1ccc(Cl)cc1)Nc1ccc(Nc2ccccc2)cc1,2.09 µg/mL
4,O=C(NC12CC3CC(CC(C3)C1)C2)N1CCN(c2cccc(Cl)c2)CC1,8.14 µg/mL
5,COc1ccc(Cl)cc1C(=O)Nc1ccc(N2CCN(Cc3ccccc3F)CC2)cc1,3.36 µg/mL
6,Cc1cc(C)nc(/N=C(/N)Nc2cc(Oc3ccccc3)ccc2Cl)n1,4.87 µg/mL
7,O=C1C(=O)N(Cc2cccc3ccccc23)c2ccc(Cl)cc21,21.4 µg/mL
8,Clc1ccc(OCc2ccccc2Cl)c(CNCc2ccccc2)c1,5.09 µg/mL
9,Cc1ccc(/C=C/[N+](=O)[O-])cc1Br,239 µg/mL
10,O=C(COc1ccc2c(-c3ccccc3)cc(=O)oc2c1)OC1CCCCC1,< 0.1 µg/mL
11,COCCNCCCCOc1ccc(Cl)cc1C(C)(C)C,4.62 µg/mL
12,O=C(Nc1ccccc1Br)c1ccc([N+](=O)[O-])o1,1.61 µg/mL
13,O=C(CSc1ccc(Cl)cc1)Nc1ccc(Br)cn1,3.02 µg/mL
14,CCOC(=O)CSc1n[nH]c(-c2ccc(Cl)cc2)n1,2.99 µg/mL
15,CCOC(=O)COc1ccc2c(=O)c(-c3ccccc3F)coc2c1C,< 0.1 µg/mL
16,CCc1ccc(C(=S)Nc2ccccc2)nc1,2.23 µg/mL
17,CCC(Sc1nc2ccccc2o1)C(=O)Nc1nnc(C)s1 (stereo not given),0.75 µg/mL
18,Cc1ccnc(N2C(=O)c3cccc4c([N+](=O)[O-])ccc(c34)C2=O)c1,1.4 µg/mL
19,COc1ccc(Br)cc1C(=O)Nc1ccc(N2CCN(C(=O)C(C)C)CC2)c(Cl)c1,5.08 µg/mL
20,COC(=O)COc1ccc(NC(=O)c2ccccc2C)cc1,< 0.1 µg/mL
21,Cc1cc2c(cc1C)N(Cc1ccc(C(C)(C)C)cc1)C1=NCCCN12,1.2 µg/mL
22,CCOc1ccc(NC(=O)COc2ccc(SC)cc2)cc1,< 0.1 µg/mL
23,OCc1cn(-c2ccccc2)nc1-c1ccc2ccccc2c1,4.25 µg/mL

row,SMILES,IC50
1,O=C(NCc1ccc2c(c1)OCO2)c1cnn2c1NC(c1cccs1)CC2C(F)(F)F (stereo not given),0.13 µg/mL
2,COC(=O)COc1ccc(S(=O)(=O)Nc2cccc(Cl)c2C)cc1,9.72 µg/mL
3,Cc1ccc(C(=O)CCNc2ccc(F)cc2)cc1,> 50 µg/mL (inactive)
4,Cc1nc2c(-c3ccc(Cl)cc3)cnn2c(N)c1-c1ccccc1,0.84 µg/mL
5,O=C(Nc1nc(-c2ccccc2)c(-c2ccccc2)o1)c1ccc(F)cc1,< 0.1 µg/mL
6,Cc1ccc(NC(=O)C(C)NS(=O)(=O)c2ccc(Cl)cc2)cc1Cl (stereo not given),2.85 µg/mL
7,CCN(CC)CCn1c(=N)n(CC(O)COc2ccc(Cl)cc2Cl)c2ccccc21 (stereo not given),1.38 µg/mL
8,FC(F)(F)c1nnc2n1Nc1nc3ccccc3nc1S2,4.52 µg/mL
9,Cc1ccc(OCC(=O)c2ccc(F)cc2)cc1C,2.46 µg/mL
10,Cc1ccc(SCC(=O)Nc2ccc(C)c(C)c2)cc1,3.4 µg/mL
11,CCCn1nnc(NC(=O)COc2ccc(C3CCCCC3)cc2)n1,0.64 µg/mL
12,O=C(/C=C/c1ccccc1OC(=O)c1cccnc1)c1ccc(Cl)cc1,5.61 µg/mL
13,O=C(Nc1ccccc1Cl)c1cc2cc(Cl)cc(Cl)c2oc1=O,> 50 µg/mL (inactive)
14,O=C(Nc1ccn(Cc2ccc(Cl)cc2)n1)c1ccc2c(c1)OCO2,2.43 µg/mL
15,CC(C)(C)OC(=O)COc1cc2oc(=O)cc(-c3ccccc3)c2cc1Cl,> 50 µg/mL (inactive)
16,O=C(Nc1ccc(-c2nc3ccccc3c(=O)o2)cc1)C1CCCCC1,23.9 µg/mL
17,COC(=O)c1ccc(/C=C/C(=O)c2cccs2)cc1,29.1 µg/mL
18,COC(=O)COc1ccc2c(=O)c(Oc3cnn(-c4ccccc4)c3)c(C)oc2c1,3.89 µg/mL
19,Cc1c(Cl)cccc1NC(=O)c1ccc(OC(C)C(=O)OC2CCCCC2)cc1 (stereo not given),< 0.1 µg/mL
20,Cc1ccc(C2CC(c3cc(Br)ccc3O)=NN2)cc1 (stereo not given),3.46 µg/mL
21,COc1cccc2c(C)nc(Nc3nc4ccccc4c(=O)[nH]3)nc12,> 50 µg/mL (inactive)
22,Cc1ccc(Cl)cc1N1CCN(CC(O)COCC2COc3ccccc3O2)CC1 (stereo not given),5.17 µg/mL
23,Cc1cc(Nc2ccc(N(C)C)cc2)c2cccc(C)c2n1,4.43 µg/mL

row,SMILES,IC50
1,COC(=O)COc1ccc2c(=O)c(Oc3ccccc3)c(C(F)(F)F)oc2c1,6.6 µg/mL
2,Cc1ccc(NC(=O)C(Cl)Cl)cc1[N+](=O)[O-],2.18 µg/mL
3,COc1cccc(NC(=O)c2c(NC(=O)c3cccnc3)sc3c2CCC3)c1,0.1 µg/mL
4,Cc1ccc2c(c1)c(-c1ccccc1)c(-c1ccccc1)n2CC(O)CN1CCN(CCO)CC1 (stereo not given),1.84 µg/mL
5,Cc1ccc2nc(-c3ccncc3)cc(C(=O)Nc3ccc(C(=O)N4CCCC4)cc3)c2c1,8.89 µg/mL
6,CCOC(=O)COc1ccc2c(=O)c(Oc3ccccc3Cl)coc2c1,2.08 µg/mL
7,Cc1ccccc1Nc1nc(-c2ccccn2)cs1,< 0.1 µg/mL
8,Cc1nc2ccc(C(=O)OCc3nnc(-c4ccccc4)o3)cc2nc1C,2.98 µg/mL
9,O=C(Cc1ccc(Cl)cc1)Nc1nc2ccc(Cl)cc2s1,3.22 µg/mL
10,Cc1ccc(S(=O)(=O)NC(=O)Oc2cccc3cccnc23)cc1,3.32 µg/mL
11,O=C(NC1CCCCC1)c1ccc(COc2cccc3ccccc23)o1,4.65 µg/mL
12,CC(Oc1ccc(C(C)(C)C)cc1)c1nc(-c2ccncc2)no1 (stereo not given),22.8 µg/mL
13,CN1CCN(c2ccc(NC(=O)c3ccc(-c4cccc([N+](=O)[O-])c4)o3)cc2)CC1,8.66 µg/mL
14,O=[N+]([O-])c1ncn(Cc2ccc(F)cc2Cl)n1,6.92 µg/mL
15,Oc1ccc(Cl)cc1CNc1nc2ccccc2[nH]1,12.1 µg/mL
16,Cc1cnc(Nc2cccc(Cl)c2)s1,14.3 µg/mL
17,CC(=O)Oc1cccc2ccc(/C=C/c3ccc(Cl)cc3)nc12,< 0.1 µg/mL
18,CCC(C)c1ccccc1OCC(=O)Nc1cccc(-c2nnc(-c3ccco3)o2)c1 (stereo not given),8.07 µg/mL
19,Cc1cc(OCCn2ccnc2)cc(C(C)C)c1,7.45 µg/mL
20,Cc1ccc(C(C)C)c(OCCCCn2ccnc2)c1,2.22 µg/mL
21,CCC(Oc1ccc2c(-c3ccccc3)cc(=O)oc2c1)C(=O)OCc1ccccc1 (stereo not given),3.8 µg/mL
22,O=C(O)c1ccc(-n2nnnc2SCc2ccccc2F)cc1,> 50 µg/mL (inactive)
23,COC(=O)c1c(NC(=O)c2c(F)c(F)c(F)c(F)c2F)sc2c1CCCCC2,0.36 µg/mL

row,SMILES,IC50
1,c1ccc(-c2nnc3sc(-c4cc5ccccc5o4)nn23)cc1,4.89 µg/mL
2,COc1ccccc1C(=O)Nc1ccc2oc(-c3cccc(Cl)c3)nc2c1,> 50 µg/mL (inactive)
3,O=C(Nc1ccncc1)c1ccc2nc(-c3ccccc3)c(-c3ccccc3)nc2c1,4.64 µg/mL
4,O=C(NC1CCCCC1)c1cccc(N2C(=O)c3cccc4c([N+](=O)[O-])ccc(c34)C2=O)c1,0.39 µg/mL
5,Oc1ccc(/C=C/c2nc(-c3ccccc3O)n(-c3ccccc3)n2)cc1,5.63 µg/mL
6,COc1ccc(CCNC(=S)N2CCN(C/C=C/c3ccccc3)CC2)cc1OC,1.73 µg/mL
7,O=C(Oc1ccc(Cl)c2cccnc12)c1ccccc1Br,> 50 µg/mL (inactive)
8,COc1ccccc1NC(=O)CSc1nc2cc3ccccc3cc2[nH]1,3.08 µg/mL
9,CCOC(=O)c1c(-c2ccccc2)oc2ccc(O)c(CN3CCCC3)c12,3.37 µg/mL
10,CCCNc1nc(Nc2ccc(C)cc2)nc(N2CCOCC2)n1,7.71 µg/mL
11,COc1ccccc1C(=O)NNC(=S)NC(=O)C1CCCCC1,3.02 µg/mL
12,O=C(Nc1ccc(F)cc1)NC1CCCCCCC1,2.53 µg/mL
13,Cn1c2c(c(=O)n(C)c1=O)C(C(F)(F)F)(C(F)(F)F)N=C(c1ccc(Cl)cc1)N2,46.1 µg/mL
14,COC(=O)CSc1nnc(-c2ccccc2C)o1,4.38 µg/mL
15,CCN1CCN(c2ccc(NC(=O)CC34CC5CC(CC(C5)C3)C4)cc2Cl)CC1,49.4 µg/mL
16,Cc1cccc2sc(NC(=O)c3ccc(C(C)(C)C)cc3)nc12,1.39 µg/mL
17,CCN(CC)c1ccc(-n2nc3cc(C)c(N)cc3n2)c(C)c1,13.1 µg/mL
18,CC(NC(=O)c1ccc(Br)cc1)c1ccc2c(c1)OCCO2 (stereo not given),5.81 µg/mL
19,COc1cccc(C(=O)OCc2cccc(C(=O)Oc3ccccc3)c2)c1,9.15 µg/mL
20,O=C(Oc1c(Cl)cc(Cl)c2cccnc12)c1cccc([N+](=O)[O-])c1,6.13 µg/mL
21,Cc1cccc(OCC(O)CN2CCN(CCN3C(=O)c4cccc5cccc(c45)C3=O)CC2)c1C (stereo not given),2.53 µg/mL
22,CCOC(=O)c1ccc(NC(=O)CSc2nnc(-c3ccc(OC)cc3)o2)cc1,0.17 µg/mL
23,O=C(Nc1ccc([N+](=O)[O-])cc1)c1nc[nH]c1C(=O)NCc1ccccc1,7.92 µg/mL
